Test results from PubChem BioAssay (NCI).
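Briefly, cells in 96-well plates were exposed to five compound concentrations for 48 h, and endpoints were estimated by linear interpolation. GI50 marks 50% less growth. At the TGI there is no net growth.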

Legend:
Experiment in all cases: DTP human tumour cell line panel, 48 h
[1] = test system: IGROV1 ovarian
[2] = test system: OVCAR-5 ovarian
[3] = test system: UACC-62 melanoma
[4] = test system: SK-OV-3 ovarian
[5] = test system: RXF 393 renal
[6] = test system: MALME-3M melanoma
[7] = test system: SF-539 CNS
[8] = test system: SNB-75 CNS
[9] = test system: HCT-116 colon
[10] = test system: LOX IMVI melanoma

`Cc1nc2ccccc2c(/C=C/c2ccc(Br)cc2)c1C(=O)/C=C/c1ccccc1` showed a GI50 [1] of 1.29 µM, a TGI [1] of 4.98 µM and a GI50 [2] of 1.84 µM. For the same molecule, the TGI [2] was 3.37 µM, the GI50 [3] was 1.54 µM and the TGI [3] was 3.01 µM. For the same molecule, the GI50 [4] was 1.88 µM, the TGI [4] was 4.15 µM and the GI50 [5] was 1.64 µM. For the same molecule, the TGI [5] was 3.07 µM, the GI50 [6] was 1.7 µM and the TGI [6] was 3.12 µM. The GI50 [7] was 1.76 µM, the TGI [7] was 3.2 µM and the GI50 [8] was 1.73 µM. The TGI [8] was 5.44 µM, the GI50 [9] was 0.601 µM and the TGI [9] was 2.28 µM. For the same molecule, the GI50 [10] was 1.65 µM and the TGI [10] was 3.01 µM.
`CC1=CC(=O)C(O)C2(C)C1CC(O)C13COC4(C)C(OC(=O)C41)C(O)C23` (stereo not given) gave a GI50 [1] of 12.3 µM, a TGI [1] of 45.8 µM and a GI50 [2] of 20.5 µM. For the same molecule, the TGI [2] was 78.3 µM, the GI50 [3] was 8.02 µM and the TGI [3] was 32.3 µM. It also gave a GI50 [4] of 16.5 µM, a TGI [4] of 95.7 µM and a GI50 [5] of 1.36 µM. It also gave a TGI [5] of 6.98 µM, a GI50 [6] of 10.1 µM and a TGI [6] of 37.4 µM. The GI50 [7] was 8.13 µM, the TGI [7] was 35.5 µM and the GI50 [8] was 22 µM. For the same molecule, the TGI [8] was over 100 µM, the GI50 [9] was 4.11 µM and the TGI [9] was 19.3 µM. It also gave a GI50 [10] of 2.41 µM and a TGI [10] of 8.4 µM.
`CCN(Cc1ccc(Cl)s1)c1ccc(CO)c(Cl)c1` showed a GI50 [1] of 0.0722 µM, a TGI [1] of 0.337 µM and a GI50 [2] of 0.0644 µM. The TGI [2] was 0.297 µM, the GI50 [3] was 0.0861 µM and the TGI [3] was 0.438 µM. For the same molecule, the GI50 [4] was 2.74 µM, the TGI [4] was 18.2 µM and the GI50 [5] was 2.1 µM. For the same molecule, the TGI [5] was 14.6 µM, the GI50 [6] was 10 µM and the TGI [6] was 28.1 µM. The GI50 [7] was 13 µM, the TGI [7] was 28.5 µM and the GI50 [8] was 2.18 µM. The TGI [8] was 21.6 µM, the GI50 [9] was 0.0464 µM and the TGI [9] was 11.3 µM. It also gave a GI50 [10] of 5.24 µM and a TGI [10] of 18.8 µM.
`CCN1C(=O)N(CC)C2C1NN=c1s/c(=C\c3ccccc3Br)c(=O)n12` (stereo not given) gave a GI50 [1] of 0.0408 µM, a TGI [1] of 21.8 µM and a GI50 [2] of 0.061 µM. The TGI [2] was over 48.7 µM, the GI50 [3] was 0.278 µM and the TGI [3] was 20.6 µM. The GI50 [4] was 0.0667 µM, the TGI [4] was over 100 µM and the GI50 [5] was 0.0389 µM. The TGI [5] was 17.4 µM, the GI50 [6] was 1.12 µM and the TGI [6] was 33.7 µM. It also gave a GI50 [7] of 0.0242 µM, a TGI [7] of 0.382 µM and a GI50 [8] of 0.0262 µM. It also gave a TGI [8] of 2.22 µM, a GI50 [9] of 0.0302 µM and a TGI [9] of 11.6 µM. It also gave a GI50 [10] of 0.0284 µM and a TGI [10] of 16.6 µM.
For `COc1ccc(OC)c(Cn2cc3c(c2)-c2oncc2CC3)c1`, the GI50 [1] was 3.87 µM, the TGI [1] was over 100 µM and the GI50 [2] was 6.08 µM. It also gave a TGI [2] of over 100 µM, a GI50 [3] of 3.97 µM and a TGI [3] of over 100 µM. For the same molecule, the GI50 [4] was 3.13 µM, the TGI [4] was over 57.5 µM and the GI50 [5] was 2.67 µM. For the same molecule, the TGI [5] was 15.7 µM, the GI50 [6] was 3.03 µM and the TGI [6] was 40.7 µM. For the same molecule, the GI50 [7] was 2.28 µM, the TGI [7] was 7.63 µM and the GI50 [8] was 1.75 µM. The TGI [8] was 6.56 µM, the GI50 [9] was 3.32 µM and the TGI [9] was 39 µM. It also gave a GI50 [10] of 4.06 µM and a TGI [10] of over 100 µM.
Molecule `COCCOCOc1ccc(OCOCCOC)c2c1C(=O)c1ccccc1C2=O` has a TGI [1] of over 100 µM, a TGI [2] of over 100 µM and a TGI [3] of over 100 µM. It also gave a TGI [4] of over 100 µM, a TGI [5] of over 100 µM and a TGI [6] of over 100 µM. For the same molecule, the TGI [7] was over 100 µM, the TGI [8] was over 100 µM and the TGI [9] was over 85.4 µM. It also gave a TGI [10] of over 100 µM.
In the case of `CC(C)=CCC/C(C)=C/CC/C(C)=C/CC/C=C(\C)CC/C=C(\C)CCC(=O)Nc1ccn(C2OC(CO)C(O)C2(F)F)c(=O)n1` (stereo not given), the GI50 [1] is reported as 0.142 µM, the TGI [1] is reported as 11.1 µM and the GI50 [2] is reported as 1.21 µM. It also gave a TGI [2] of 26.3 µM, a GI50 [3] of 0.287 µM and a TGI [3] of 15.2 µM. For the same molecule, the GI50 [4] was 0.0644 µM, the TGI [4] was 13.8 µM and the GI50 [5] was 1.09 µM. The TGI [5] was 7.15 µM, the GI50 [6] was 0.438 µM and the TGI [6] was 6.71 µM. The GI50 [7] was 0.0268 µM, the TGI [7] was 0.475 µM and the GI50 [8] was 3 µM. The TGI [8] was 23.3 µM, the GI50 [9] was 0.0314 µM and the TGI [9] was 1.14 µM. The GI50 [10] was 0.347 µM and the TGI [10] was 14.5 µM.
Molecule `CC(=O)c1c(C(F)(F)F)n([O-])c2ccc(C)cc2[n+]1=O` has a GI50 [1] of 4.14 µM, a TGI [1] of over 100 µM and a GI50 [2] of 7 µM. It also gave a TGI [2] of 40.3 µM, a GI50 [3] of 1.31 µM and a TGI [3] of 3.34 µM. It also gave a GI50 [4] of 5.02 µM, a TGI [4] of over 100 µM and a GI50 [5] of 10.2 µM. It also gave a TGI [5] of over 100 µM, a GI50 [6] of 2.54 µM and a TGI [6] of 15.6 µM. It also gave a GI50 [7] of 1.78 µM, a TGI [7] of 5.1 µM and a GI50 [8] of 3.28 µM. The TGI [8] was 18.1 µM, the GI50 [9] was 3.89 µM and the TGI [9] was over 41.1 µM. It also gave a GI50 [10] of 3.29 µM and a TGI [10] of over 44.2 µM.
Work on `COc1ccc2cc(-c3c(-c4ccncc4)nc(-c4ccc(S(C)=O)cc4)n3C)ccc2c1` (stereo not given) yielded a GI50 [1] of over 25 µM, a TGI [1] of over 25 µM and a GI50 [2] of over 25 µM. The TGI [2] was over 25 µM, the GI50 [3] was 21 µM and the TGI [3] was over 25 µM. The GI50 [4] was 10.7 µM, the TGI [4] was over 25 µM and the GI50 [5] was 2.78 µM. It also gave a TGI [5] of over 25 µM, a GI50 [6] of 24.5 µM and a TGI [6] of over 25 µM. It also gave a GI50 [7] of over 25 µM, a TGI [7] of over 25 µM and a GI50 [8] of over 12.8 µM. The TGI [8] was over 25 µM, the GI50 [9] was 19.1 µM and the TGI [9] was over 25 µM. It also gave a GI50 [10] of over 23.4 µM and a TGI [10] of over 25 µM.
`Nc1ccccc1SCc1csc(-c2ccc(Cl)cc2)n1` was tested, and the TGI [1] was over 100 µM, the TGI [2] was over 95.2 µM and the TGI [3] was over 64 µM. It also gave a TGI [4] of over 89.6 µM, a TGI [5] of 60.4 µM and a TGI [6] of 47 µM. The TGI [7] was 53.2 µM, the TGI [8] was over 100 µM and the TGI [9] was over 100 µM. It also gave a TGI [10] of 35.2 µM.
`O=C1NC(=O)C(c2cccc(Cl)c2)=C1Nc1ccc(O)c(Cl)c1` showed a GI50 [1] of 12.9 µM, a TGI [1] of over 25 µM and a GI50 [2] of 22.4 µM. For the same molecule, the TGI [2] was over 25 µM, the GI50 [3] was 7.63 µM and the TGI [3] was over 25 µM. For the same molecule, the GI50 [4] was 6.62 µM, the TGI [4] was 16.2 µM and the GI50 [5] was 6.4 µM. The TGI [5] was 24.8 µM, the GI50 [6] was 15.9 µM and the TGI [6] was over 25 µM. For the same molecule, the GI50 [7] was 7.71 µM, the TGI [7] was over 21.9 µM and the GI50 [8] was 6.96 µM. It also gave a TGI [8] of over 20.4 µM, a GI50 [9] of 9.6 µM and a TGI [9] of over 25 µM. For the same molecule, the GI50 [10] was 8.85 µM and the TGI [10] was over 25 µM.
With `COC(=O)C(C)(C)N=CN(C)C` the TGI [1] was over 100 µM, the TGI [2] was over 100 µM and the TGI [3] was over 100 µM. It also gave a TGI [4] of over 100 µM, a TGI [5] of over 100 µM and a TGI [6] of over 100 µM. For the same molecule, the TGI [7] was over 100 µM, the TGI [8] was over 100 µM and the TGI [9] was over 100 µM. For the same molecule, the TGI [10] was over 100 µM.
Work on `COC(CN1C=C(Sc2ccccc2)CC1)OC` yielded a TGI [1] of over 100 µM, a TGI [2] of over 100 µM and a TGI [3] of over 100 µM. The TGI [4] was 93 µM, the TGI [5] was 66.6 µM and the TGI [6] was over 100 µM. It also gave a TGI [7] of 68.3 µM, a TGI [8] of 52.7 µM and a TGI [9] of over 100 µM. The TGI [10] was 56.3 µM.
For `O=C(Nc1cccc(Nc2ncc(Br)c(NCCc3cnc[nH]3)n2)c1)N1CCCC1`, the GI50 [1] was 3.23 µM, the TGI [1] was 28.8 µM and the GI50 [2] was 9.29 µM. For the same molecule, the TGI [2] was 73.1 µM, the GI50 [3] was 6.12 µM and the TGI [3] was 22.4 µM. For the same molecule, the GI50 [4] was 4.95 µM, the TGI [4] was 32.4 µM and the GI50 [5] was 1.61 µM. For the same molecule, the TGI [5] was 9.06 µM, the GI50 [6] was 6.19 µM and the TGI [6] was 20 µM. It also gave a GI50 [7] of 0.897 µM, a TGI [7] of 9.17 µM and a GI50 [8] of 1.28 µM. It also gave a TGI [8] of 4.96 µM, a GI50 [9] of 1.56 µM and a TGI [9] of over 60 µM. It also gave a GI50 [10] of 1.11 µM and a TGI [10] of 7.4 µM.
Work on `CSC(=S)N/N=C(\C)c1cccc(C)n1` yielded a TGI [1] of 18 µM, a TGI [2] of 86.5 µM and a TGI [3] of 3.67 µM. It also gave a TGI [4] of 10.7 µM, a TGI [5] of 13.8 µM and a TGI [6] of 10 µM. For the same molecule, the TGI [7] was 7.34 µM, the TGI [8] was 13.6 µM and the TGI [9] was 1.84 µM. It also gave a TGI [10] of 15.1 µM.
